Tests used:
Myzus persicae [1] = test: Myzus persicae - spray test; assay type: in vivo; settings: application rate of 500 g/ha; after 6 days; sprayed Chinese cabbage leaf discs infested by all stages; 100% = all aphids killed
In short: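 Chinese cabbage leaf discs infested with all stages of green peach aphid sprayed with compound in acetone/DMF formulation with alkylaryl polyglycol ether emulsifier, diluted in emulsifier-containing water. Efficacy (% aphids killed) assessed after 6 days.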

Myzus persicae [2] = test: Myzus persicae - sachet test; assay type: in vivo; settings: 100% = all animals killed
In short: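 Active ingredient dissolved with 2% N-methylpyrrolidone and 2% diacetone alcohol, diluted in water, then pipetted into nutrient medium. Plate sealed and paired with a plate carrying green peach aphids. Kill in % scored after the set time (100% = all dead, 0% = none dead).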

[3] = log P determination by LC-MS in the acidic range; assay type: physicochemical
Excerpt: The LC-MS determination in the acidic range is effected at pH 2.7 using 0.1% aqueous formic acid and acetonitrile (contains 0.1% formic acid) as eluents, linear gradient from 10% acetonitrile to 95% acetonitrile. Alternatively, the determination is effected in the acidic range at pH 2.3 using 0.1% aqueous phosphoric acid and acetonitrile as eluents; linear gradient from 10% acetonitrile to 95% acetonitrile.

[4] = application rate of 6 ppm in nutrient medium
[5] = application rate of 30 ppm in nutrient medium

Cc1cc(NC(=O)c2cccnc2)nn1C(=O)NCc1ccccn1 [Compound I-1-329]
efficacy in % (Myzus persicae [1]): 90%
efficacy (kill in %) (Myzus persicae [2]; [4]): 100%
efficacy (kill in %) (Myzus persicae [2]; [5]): 100%
log P (acid) ([3]; LC-MS in the acidic range): 0.88

Cc1cnn(Cn2nc(NC(=O)c3cccnc3)cc2C)c1 [Compound I-1-226]
efficacy in % (Myzus persicae [1]): 100%
efficacy (kill in %) (Myzus persicae [2]; [4]): 100%
efficacy (kill in %) (Myzus persicae [2]; [5]): 100%
log P (acid) ([3]; LC-MS in the acidic range): 1.24

Cc1cc(NC(=O)c2cccnc2)nn1CCCl [Compound I-1-33]
efficacy in % (Myzus persicae [1]): 100%
efficacy (kill in %) (Myzus persicae [2]; [4]): 100%
efficacy (kill in %) (Myzus persicae [2]; [5]): 100%
log P (acid) ([3]; LC-MS in the acidic range): 1.16

Cc1cc(NC(=O)c2cccnc2)nn1CS(C)(=O)=O [Compound I-1-244]
efficacy in % (Myzus persicae [1]): 90%
efficacy (kill in %) (Myzus persicae [2]; [4]): 100%
efficacy (kill in %) (Myzus persicae [2]; [5]): 100%
log P (acid) ([3]; LC-MS in the acidic range): 0.59

Cc1cc(NC(=O)c2cccnc2)nn1CCS(C)(=O)=O [Compound I-1-182]
efficacy in % (Myzus persicae [1]): 100%
efficacy (kill in %) (Myzus persicae [2]; [4]): 100%
efficacy (kill in %) (Myzus persicae [2]; [5]): 100%
log P (acid) ([3]; LC-MS in the acidic range): 0.49

CSCCNC(=O)n1nc(NC(=O)c2cccnc2)cc1C [Compound I-1-167]
efficacy in % (Myzus persicae [1]): 90%
efficacy (kill in %) (Myzus persicae [2]; [4]): 100%
efficacy (kill in %) (Myzus persicae [2]; [5]): 100%
log P (acid) ([3]; LC-MS in the acidic range): 1.55

Cc1cc(NC(=O)c2cccnc2)nn1C(=O)NCC(C)C [Compound I-1-320]
efficacy in % (Myzus persicae [1]): 90%
efficacy (kill in %) (Myzus persicae [2]; [4]): 100%
efficacy (kill in %) (Myzus persicae [2]; [5]): 100%
log P (acid) ([3]; LC-MS in the acidic range): 1.89

Cc1cc(NC(=O)c2cccnc2)nn1Cc1noc(C(=O)N(C)C)n1 [Compound I-1-286]
efficacy in % (Myzus persicae [1]): 100%
efficacy (kill in %) (Myzus persicae [2]; [4]): 100%
efficacy (kill in %) (Myzus persicae [2]; [5]): 100%
log P (acid) ([3]; LC-MS in the acidic range): 1.03

CNC(=O)Cn1nc(NC(=O)c2cccnc2)cc1C [Compound I-1-124]
efficacy in % (Myzus persicae [1]): 90%
efficacy (kill in %) (Myzus persicae [2]; [4]): 100%
efficacy (kill in %) (Myzus persicae [2]; [5]): 100%
log P (acid) ([3]; LC-MS in the acidic range): 0.29

Cc1cc(NC(=O)c2cccnc2)nn1C1CCCCC1 [Compound I-1-204]
efficacy in % (Myzus persicae [1]): 90%
efficacy (kill in %) (Myzus persicae [2]; [4]): 80%
efficacy (kill in %) (Myzus persicae [2]; [5]): 80%
log P (acid) ([3]; LC-MS in the acidic range): 2.02

Cc1cc(NC(=O)c2cccnc2)nn1S(=O)(=O)N(C)C [Compound I-1-231]
efficacy in % (Myzus persicae [1]): 90%
efficacy (kill in %) (Myzus persicae [2]; [4]): 100%
efficacy (kill in %) (Myzus persicae [2]; [5]): 100%
log P (acid) ([3]; LC-MS in the acidic range): 1.52

O=C(Nc1ccn(-c2ncc(C(F)(F)F)cc2Cl)n1)c1cccnc1 [Compound I-1-63]
efficacy in % (Myzus persicae [1]): 100%
efficacy (kill in %) (Myzus persicae [2]; [5]): 100%
log P (acid) ([3]; LC-MS in the acidic range): 2.18

Cc1cc(NC(=O)c2cccnc2)nn1C(=O)NCC1CCCO1 (stereo not shown) [Compound I-1-311]
efficacy in % (Myzus persicae [1]): 90%
efficacy (kill in %) (Myzus persicae [2]; [5]): 100%
log P (acid) ([3]; LC-MS in the acidic range): 1.45

Cc1cc(NC(=O)c2cccnc2)nn1CN1CCCNC1=O [Compound I-1-149]
efficacy in % (Myzus persicae [1]): 90%
efficacy (kill in %) (Myzus persicae [2]; [4]): 100%
efficacy (kill in %) (Myzus persicae [2]; [5]): 100%
log P (acid) ([3]; LC-MS in the acidic range): 0.62

COc1ccc([N+](=O)[O-])cc1Cn1cnc(NC(=O)c2cccnc2)n1 [Compound I-2-4]
efficacy in % (Myzus persicae [1]): 90%
efficacy (kill in %) (Myzus persicae [2]; [5]): 100%
log P (acid) ([3]; Table 2, compounds of the formula (I-2), acidic range pH 2.7 or pH 2.3): 1.13

Cc1cc(NC(=O)c2cccnc2)nn1C(C)C1CC1 (stereo not shown) [Compound I-1-218]
efficacy in % (Myzus persicae [1]): 100%
efficacy (kill in %) (Myzus persicae [2]; [4]): 100%
efficacy (kill in %) (Myzus persicae [2]; [5]): 100%
log P (acid) ([3]; LC-MS in the acidic range): 1.63

Cc1cc(C)nc(Cn2nc(NC(=O)c3cccnc3)cc2C)n1 [Compound I-1-36]
efficacy in % (Myzus persicae [1]): 90%
efficacy (kill in %) (Myzus persicae [2]; [4]): 100%
efficacy (kill in %) (Myzus persicae [2]; [5]): 100%
log P (acid) ([3]; LC-MS in the acidic range): 1.2

Cc1cc(NC(=O)c2cccnc2)nn1Cc1nccn1C [Compound I-1-293]
efficacy in % (Myzus persicae [1]): 90%
efficacy (kill in %) (Myzus persicae [2]; [4]): 100%
efficacy (kill in %) (Myzus persicae [2]; [5]): 100%
log P (acid) ([3]; LC-MS in the acidic range): −0.21

Cc1cc(NC(=O)c2cccnc2)nn1Cc1nnc(C(C)(C)C)o1 [Compound I-1-281]
efficacy in % (Myzus persicae [1]): 90%
efficacy (kill in %) (Myzus persicae [2]; [4]): 80%
efficacy (kill in %) (Myzus persicae [2]; [5]): 100%
log P (acid) ([3]; LC-MS in the acidic range): 1.44

Source: US20160106102A1, “KNOWN AND NEW HETEROCYCLIC COMPOUNDS AS PEST CONTROL AGENTS” (BAYER CROPSCIENCE AKTIENGESELLSCHAFT, priority 2013, published 2016)
